Laboratory results taken from patent publication US20110166156A1, “Prodrugs for the Treatment of Schizophrenia and Bipolar Disease” (Alkermes, Inc., priority 2010, published 2011).

Experiment: Pharmacokinetic evaluation of paliperidone prodrugs in rats, intramuscular administration (Study 1 and Study 2)
Type: in vivo, Sprague-Dawley rats
Conditions: male rats, IM, milled crystalline suspension, plasma by LC-MS/MS; for Cmax: combined Study 1 and Study 2, compared in The FIGURE with the other prodrugs tested; for Tmax: combined Study 1 and Study 2, shown in The FIGURE
Method: Two PK studies were conducted using intramuscular (IM) administration in rats of water-insoluble paliperidone prodrugs and the results were combined in The FIGURE.
Animals: 18 Male Sprague-Dawley rats (Charles River Laboratories, Wilmington, Mass.) were used in the study. Three groups of 6 rats were used and are referred to in this study as Groups A, B and C. Rats were approximately 350-375 g at time of arrival. Rats are housed 2 per cage with ad libitum chow and water. Environmental conditions in the housing room: 64-67° F., 30% to 70% relative humidity, and 12:12-h light:dark cycle. All experiments were approved by the institutional animal care and use committee.
Pharmacokinetics study: Rats were dosed IM by means of a 23 gauge, 1 inch needle with 1 cc syringe 0.3 mL suspension was withdrawn from the vial containing the test compound in suspension. The rat was injected in the muscles of the hind limb after anesthesia with isoflurane. Blood samples were collected via a lateral tail vein after brief anesthesia with Isoflurane. A 27½ G needle and 1 cc syringe without an anticoagulant was used for the blood collection. Approximately 35 0 μL of whole blood was collected at each sampling time point of 6 hours, 24 hours and 2, 5, 7, 9, 12, 14, 21, 28, 35 days after administration. Once collected, whole blood was immediately transferred to tubes containing K2 EDTA, inverted 10-15 times and immediately placed on ice. The tubes were centrifuged for 2 minutes at >14,000 g's (11500 RPMs using Eppendorf Centrifuge 5417C, F45-30-11 rotor) at room temperature to separate plasma. Plasma samples were transferred to labeled plain tubes (MICROTAINER®) and stored frozen at <−70° C.
(§1) Data Analysis: Drug concentrations in plasma samples were analyzed by liquid chromatography-mass spectroscopy (LC-MS/MS) using appropriate parameters for each compound. Half-life of Paliperidone, maximal concentration (Cmax), time to maximal concentration (Tmax), and AUC were calculated by using WinNonlin version 5.2 software (Pharsight, St. Louis, Mo.).
Pharmacokinetics study: Rats were dosed IM by means of a 23 gauge, 1 in. needle with 1 cc syringe 0.3 mL suspension was withdrawn from the vial containing the test compound in suspension. The rat was injected in the muscles of the hind limb after anesthesia with isoflurane. Blood samples were collected via a lateral tail vein after brief anesthesia with Isoflurane. […]
as §1, with “Half-life,” for “Half-life of Paliperidone,”, “concentration,” for “concentration (Cmax),”, “concentration” for “concentration (Tmax),”, “Mo.). […]” for “Mo.).”

Cmax	Tmax	SMILES
lower than that of the other compounds	delayed	CCCCCCCCCCCCCCCC(=O)OCOC1CCCn2c1nc(C)c(CCN1CCC(c3noc4cc(F)ccc34)CC1)c2=O (stereo not shown) [Compound 157]
lower than that of the other compounds	delayed	CCCCCCCCCCCCCCCC(=O)OC1CCCn2c1nc(C)c(CCN1CCC(c3noc4cc(F)ccc34)CC1)c2=O (stereo not shown) [PP, Paliperidone Palmitate]
